Assay results taken from patent US10364216B2, “Alkenyl sulfate ester or salt thereof” (Kao Corporation, priority 2013, dated 2019).
Structures can show the parent of a compound that is named as a salt.

Target: T1, ENaC complex (human ENaCα, β and γ) (Homo sapiens, UniProt P37088+P51168+P51170)
T1 construct: host or cells: Xenopus oocytes injected with cRNA
T1 sequence (P37088 1-669): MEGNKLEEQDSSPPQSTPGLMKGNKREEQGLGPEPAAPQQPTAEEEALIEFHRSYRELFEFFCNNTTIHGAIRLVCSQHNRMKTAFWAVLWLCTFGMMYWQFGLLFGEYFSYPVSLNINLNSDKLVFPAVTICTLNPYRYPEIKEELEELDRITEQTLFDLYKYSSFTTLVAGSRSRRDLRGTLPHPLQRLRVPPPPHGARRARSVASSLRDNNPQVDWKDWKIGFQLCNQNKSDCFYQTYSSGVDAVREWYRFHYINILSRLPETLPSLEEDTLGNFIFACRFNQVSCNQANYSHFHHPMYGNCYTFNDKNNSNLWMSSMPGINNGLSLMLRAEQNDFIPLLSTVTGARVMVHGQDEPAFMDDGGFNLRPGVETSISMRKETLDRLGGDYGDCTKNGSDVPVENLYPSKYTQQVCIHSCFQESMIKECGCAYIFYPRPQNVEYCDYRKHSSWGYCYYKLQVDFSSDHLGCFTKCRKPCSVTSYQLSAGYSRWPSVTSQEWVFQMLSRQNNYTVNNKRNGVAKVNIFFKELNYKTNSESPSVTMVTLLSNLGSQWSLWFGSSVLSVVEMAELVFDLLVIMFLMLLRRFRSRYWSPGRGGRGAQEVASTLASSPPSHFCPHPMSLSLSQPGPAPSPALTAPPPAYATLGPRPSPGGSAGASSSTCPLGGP
T1 sequence (P51168 1-640): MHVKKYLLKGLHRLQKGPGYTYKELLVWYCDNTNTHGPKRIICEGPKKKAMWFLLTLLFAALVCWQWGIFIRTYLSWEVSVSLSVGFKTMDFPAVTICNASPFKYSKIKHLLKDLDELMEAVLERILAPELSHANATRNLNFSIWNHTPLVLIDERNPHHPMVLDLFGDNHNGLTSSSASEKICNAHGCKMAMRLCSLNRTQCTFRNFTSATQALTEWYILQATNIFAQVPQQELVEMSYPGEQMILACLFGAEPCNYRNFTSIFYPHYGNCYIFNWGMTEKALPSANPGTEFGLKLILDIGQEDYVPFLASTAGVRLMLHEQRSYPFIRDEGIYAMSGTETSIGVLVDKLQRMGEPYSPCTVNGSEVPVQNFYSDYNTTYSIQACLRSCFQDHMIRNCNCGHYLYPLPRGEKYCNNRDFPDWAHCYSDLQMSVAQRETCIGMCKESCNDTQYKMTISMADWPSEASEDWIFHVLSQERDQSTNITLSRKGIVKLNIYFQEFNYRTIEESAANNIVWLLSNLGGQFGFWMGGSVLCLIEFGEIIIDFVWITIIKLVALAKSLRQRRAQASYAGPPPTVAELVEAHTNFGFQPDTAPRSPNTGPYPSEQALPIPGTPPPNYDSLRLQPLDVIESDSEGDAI
T1 sequence (P51170 1-649): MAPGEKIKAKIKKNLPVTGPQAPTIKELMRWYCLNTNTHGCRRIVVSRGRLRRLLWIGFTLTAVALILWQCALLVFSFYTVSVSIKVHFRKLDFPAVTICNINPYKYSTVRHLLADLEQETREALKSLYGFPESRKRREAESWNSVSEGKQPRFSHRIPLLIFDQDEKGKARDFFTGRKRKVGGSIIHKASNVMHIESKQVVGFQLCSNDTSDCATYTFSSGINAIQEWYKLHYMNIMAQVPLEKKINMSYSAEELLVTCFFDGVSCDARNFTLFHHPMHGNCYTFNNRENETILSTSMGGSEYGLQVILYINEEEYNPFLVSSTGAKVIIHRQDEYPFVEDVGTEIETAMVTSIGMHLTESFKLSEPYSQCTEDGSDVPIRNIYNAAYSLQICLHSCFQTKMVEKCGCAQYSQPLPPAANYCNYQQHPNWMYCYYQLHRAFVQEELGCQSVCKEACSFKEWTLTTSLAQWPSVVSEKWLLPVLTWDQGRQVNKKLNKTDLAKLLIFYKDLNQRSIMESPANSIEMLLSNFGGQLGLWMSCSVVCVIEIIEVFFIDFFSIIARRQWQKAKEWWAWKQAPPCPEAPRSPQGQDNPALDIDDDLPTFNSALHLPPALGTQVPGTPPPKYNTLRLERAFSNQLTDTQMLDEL
Experiment: ENaC inhibition activity, two-electrode voltage clamp in Xenopus oocytes
Type: cell-based
Conditions: 3 to 30 mM; membrane potential −60 mV; 115 mM NaCl solution; FIG. 1
Protocol: Inhibition activity of ENaC expressed in Xenopus oocytes was measured according to the method described in “The journal of biological chemistry, 284 (2): pages 792-798 (2009)”. Specifically, trans-3-octenyl sulfate was added to oocytes expressed with ENaC complex, and the activity of ENaC was analyzed electrophysiologically in accordance with the procedures described below.
First, DNA sequences encoding human ENaCα, β and γ, respectively were obtained by carrying out PCR using a plasmid vector on which the same gene was cloned (manufactured by Clontech Laboratories, Inc.) as a template. The obtained PCR amplification fragment was integrated into a transcription vector pSP64 (manufactured by Promega Corporation), and pSP64/ENaCα, pSP64/ENaCβ and pSP64/ENaCγ were manufactured, respectively.
pSP64/ENaCα and pSP64/ENaCγ were digested with EcoRI, and pSP64/ENaCβ was digested with PvuII, respectively, whereby linearize the plasmid DNA. […]
The obtained aqueous solutions of cRNA encoding ENaCα, ENaCβ and ENaCγ respectively were mixed in the same quantity, and injected by 50 ng per one Xenopus oocyte. […]
Two micro-glass electrodes were inserted into the oocyte, and the membrane potential was fixed at −60 mV. At this time, Na^+ ion influx induced by ENaC complex in a constantly active state was measured with replacement to change of the current amount. […]

How did the “Effect on inward current of ENaC expressing oocytes” value turn out when CCCC/C=C/CCOS(=O)(=O)O [trans-3-octenyl sulfate] was run?
Its value is “inhibited inward current of ENaC expressing oocytes concentration-dependently”.
